US12128028B2, “Heterocyclic sulfonamide derivatives and pharmaceutical uses thereof” (METRION BIOSCIENCES LIMITED, priority 2018, dated 2024)
pIC50: −log10 of the molar value.

The compounds below were run against human Kv1.3 (Homo sapiens (Human), UniProt P22001) (assay: Kv1.3 potency evaluation, automated patch clamp electrophysiology (QPatch HT) in CHO-Kv1.3 cells). Conditions: whole-cell QPatch HT, % inhibition of charge, step to +30 mV, four concentrations, N≥3 cells, read-out: hKv1.3 IC50.
Chain of human Kv1.3 (P22001 whole entry): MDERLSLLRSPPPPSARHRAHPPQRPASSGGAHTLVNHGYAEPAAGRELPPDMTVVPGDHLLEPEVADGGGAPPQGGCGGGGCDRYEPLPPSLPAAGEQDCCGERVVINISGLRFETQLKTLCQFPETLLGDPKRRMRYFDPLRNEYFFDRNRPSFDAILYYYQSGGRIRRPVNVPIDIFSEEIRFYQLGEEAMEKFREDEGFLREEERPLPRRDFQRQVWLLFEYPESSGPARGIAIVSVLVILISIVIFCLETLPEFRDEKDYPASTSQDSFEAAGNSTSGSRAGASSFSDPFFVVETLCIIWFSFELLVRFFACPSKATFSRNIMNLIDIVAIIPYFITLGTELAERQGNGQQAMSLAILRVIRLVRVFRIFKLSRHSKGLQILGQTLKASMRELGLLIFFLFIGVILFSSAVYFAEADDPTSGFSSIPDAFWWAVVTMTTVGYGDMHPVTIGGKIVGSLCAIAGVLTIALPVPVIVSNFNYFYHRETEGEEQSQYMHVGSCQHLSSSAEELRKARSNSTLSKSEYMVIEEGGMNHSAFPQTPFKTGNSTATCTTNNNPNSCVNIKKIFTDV
Assay type: cell-based
Source text: Biological Assays Kv1.3 Potency Evaluation Electrophysiology Recordings
A proprietary Chinese hamster ovary cell line stably expressing exogenous human a-subunits of Kv1.3 (CHO-Kv1.3) channel, validated biophysically and pharmacologically in house, was used to assess the ability of test compounds to block Kv1.3 currents using automated patch clamp electrophysiology. The QPatch HT system (Sophion Bioscience A/S, Denmark) was used with the conventional whole-cell configuration. This system is an automated, chip-based planar patch clamp device allowing for up to 48 parallel independent experiments in one experimental assay run. Cells are added to each well and drawn by suction onto a small aperture to obtain a Gigaohm seal between the cell membrane and treated silicon surface, and whole-cell recordings initiated after access is achieved by suction and/or voltage pulses. The QPatch HT uses static perfusion, whereby a small volume of recording solution or drug is added to a reservoir on the chip and the solution perfuses across the cell through quartz-lined microfluidic channels; this solution is removed by capillary action when the next sample application is made.
CHO-Kv1.3 cells were prepared for experiments by dissociation from T175 cell culture flasks using trypsin-EDTA (0.05%), cells were kept in serum free media in the cell hotel on board the QPatch HT. These cells were sampled, washed and re-suspended in extracellular recording solution by the QPatch HT immediately before application to the recording well site on the chip. Experiments were performed using the following solutions; extracellular solution contained (in mM); 150 NaCl, 10 KCl, 1 MgCl2, 3 CaCl2), 10 Glucose and 10 HEPES (pH 7.4, NaOH) and intracellular solution contained (in mM); 20 KCl, 120 KF, 10 HEPES, 10 EGTA, 5 ATP (pH 7.2, KOH).
The potency (Inhibitory Concentration 50%, IC50) of synthesized compounds against Kv1.3 was determined from concentration-response relationships established by cumulatively applying four escalating concentrations of test compound to an individual cell and a minimum of N≥3 individual cells of data per compound were used to generate the IC50 value.
On achieving the whole-cell configuration; two additions of vehicle (0.1-0.3% DMSO v/v) were applied to each cell in two bolus additions with a two minute recording period between each addition (four minutes total recording time). Following the vehicle period, four concentrations of test sample were applied as two bolus additions per test concentration at two minute intervals, and the effects on current measured during the four minute recording period.
Currents were elicited using a single step voltage protocol. From a holding potential of −80 mV the cell is depolarised to +30 mV (500 ms) resulting in an outward current before finally repolarising the cell by returning to the holding potential. The command voltage was applied at a frequency of 0.067 Hz throughout the duration of the experiment. For each sweep of the voltage protocol membrane current and the passive properties of the individual cells were recorded by QPatch assay software (version 5.2). Cursors were placed to calculate the charge (integral of the current recorded during cursor interval) between 2-490 ms (0.4-99%) of the 500 ms step to +30 mV.
The % inhibition of charge for each test concentration application period was calculated as the reduction in mean charge at the end of each concentration test period relative to the charge value measured at the end of the control (i.e. vehicle) period. Sigmoidal concentration response curves (four parameter logistic curve) were fitted to the % inhibition rom which the IC50 was determined. Curve fits were constrained at 0 and 100%.
For `CC1(C)N=C(C23CC(N(Cc4ccc(Cl)c(F)c4)S(=O)(=O)c4ccccc4)(C2)C3)N[C@H]1C(=O)N1CC2CC(F)(F)CC2C1` (mixture of isomers) [Example 82], the pIC50 was 7.21. `CN(C[C@H]1CC1(F)F)C(=O)[C@@H]1NC(C23CC(N(Cc4ccc(Cl)c(F)c4)S(=O)(=O)c4ccccc4)(C2)C3)=NC1(C)C` (mixture of isomers) [Example 83] gave a pIC50 of 7.21. For `CC1(C)N=C(C23CC(N(Cc4ccc(Cl)c(F)c4)S(=O)(=O)c4ccccc4)(C2)C3)N[C@H]1C(=O)NC1CC(C(F)F)C1` (mixture of isomers) [Example 84], the pIC50 was 7.21. For `C[C@H]1CCN(C(=O)[C@@H]2NC(C34CC(N(Cc5ccc(Cl)c(F)c5)S(=O)(=O)c5ccccc5)(C3)C4)=NC2(C)C)C1` (mixture of isomers) [Example 85], the pIC50 was 7.21. `CC1(C)N=C(C23CC(N(Cc4ccc(Cl)c(Cl)c4)S(=O)(=O)c4ccccc4)(C2)C3)N[C@H]1C(=O)N1CCC(F)(F)CC1` (mixture of isomers) [Example 86] showed a pIC50 of 7.21. With `CC1(C)N=C(C23CC(N(Cc4ccc(Cl)c(F)c4)S(=O)(=O)c4ccccc4)(C2)C3)N[C@H]1C(=O)N1CC2(CCC2)C1` (mixture of isomers) [Example 87] the pIC50 was 7.20. In the case of `CC1(C)N=C(C23CC(N(Cc4ccc(Cl)c(F)c4)S(=O)(=O)c4ccccc4)(C2)C3)N[C@H]1C(=O)N1CC2CCC(C1)C2(F)F` (mixture of isomers) [Example 88], the pIC50 was 7.20. `CC1(C)N=C(C23CC(N(Cc4ccc(Cl)c(F)c4)S(=O)(=O)c4ccccc4)(C2)C3)N[C@H]1C(=O)NC1CC(C(F)F)C1` (mixture of isomers) [Example 89] gave a pIC50 of 7.20. Work on `CC1(C)N=C(C23CC(N(Cc4ccc(Cl)cc4)S(=O)(=O)c4ccn(C5CC5)n4)(C2)C3)N[C@H]1C(=O)NCCC(F)(F)F` (mixture of isomers) [Example 90] yielded a pIC50 of 7.19. `CC1(C)N=C(C23CC(N(Cc4ccc(Cl)c(F)c4)S(=O)(=O)c4ccccc4)(C2)C3)N[C@H]1C(=O)N1CCC(F)(F)C1` (mixture of isomers) [Example 91] was tested, and the pIC50 was 7.19. `CC1(C)N=C(C23CC(N(Cc4ccc(Cl)cc4)S(=O)(=O)CCCF)(C2)C3)N[C@H]1C(=O)NCCC(F)(F)F` (mixture of isomers) [Example 92] showed a pIC50 of 7.19. `CC(F)(F)CCS(=O)(=O)N(Cc1ccc(Cl)cc1)C12CC(C3=NC(C)(C)[C@H](C(=O)NCCC(F)(F)F)N3)(C1)C2` (mixture of isomers) [Example 93] showed a pIC50 of 7.19. Compound `CC1(C)N=C(C23CC(N(Cc4ccc(Cl)c(F)c4)S(=O)(=O)c4ccccc4)(C2)C3)N[C@H]1C(=O)N1CCC12CC(F)(F)C2` (mixture of isomers) [Example 94] has a pIC50 of 7.19. Work on `CN(CC(C)(C)F)C(=O)[C@@H]1NC(C23CC(N(Cc4ccc(Cl)c(F)c4)S(=O)(=O)c4ccccc4)(C2)C3)=NC1(C)C` (mixture of isomers) [Example 95] yielded a pIC50 of 7.19. `CCCS(=O)(=O)N(Cc1ccc(Cl)c(Cl)c1)C12CC(C3=NC(C)(C)[C@H](C(=O)N4CCC(F)(F)CC4)N3)(C1)C2` (mixture of isomers) [Example 96] was tested, and the pIC50 was 7.19. Compound `CC1(C)N=C(C23CC(N(Cc4ccc(Cl)c(F)c4)S(=O)(=O)c4ccccc4)(C2)C3)N[C@H]1C(=O)N1CCCC(F)(F)C1` (mixture of isomers) [Example 98] has a pIC50 of 7.18. `CC1(C)N=C(C23CC(N(Cc4ccc(Cl)cc4)S(=O)(=O)c4ccccc4C#N)(C2)C3)N[C@H]1C(=O)NCCC(F)(F)F` (mixture of isomers) [Example 99] gave a pIC50 of 7.17. For `CCN(CCC(F)(F)F)C(=O)[C@@H]1NC(C23CC(N(Cc4ccc(Cl)c(F)c4)S(=O)(=O)c4ccccc4)(C2)C3)=NC1(C)C` (mixture of isomers) [Example 100], the pIC50 was 7.17. Work on `CC1(C)N=C(C23CC(N(Cc4ccc(Cl)cc4)S(=O)(=O)c4ccccc4)(C2)C3)N[C@H]1C(=O)NC1CC(C(F)F)C1` (mixture of isomers) [Example 101] yielded a pIC50 of 7.17. With `CC1(C)N=C(C23CC(N(Cc4ccc(Cl)cc4)S(=O)(=O)CCCCF)(C2)C3)N[C@H]1C(=O)NCCC(F)(F)F` (mixture of isomers) [Example 102] the pIC50 was 7.17. With `CC1(C)N=C(C23CC(N(Cc4ccc(Cl)c(Cl)c4)S(=O)(=O)CCC(F)F)(C2)C3)N[C@H]1C(=O)NCC1CC1(F)F` (mixture of isomers) [Example 103] the pIC50 was 7.17. Work on `CC1(C)N=C(C23CC(N(Cc4ccc(Cl)c(F)c4)S(=O)(=O)c4ccccc4)(C2)C3)N[C@H]1C(=O)NC1CCC(F)(F)CC1` (mixture of isomers) [Example 104] yielded a pIC50 of 7.16. In the case of `CC1(C)N=C(C23CC(N(Cc4ccc(Cl)cc4)S(=O)(=O)CC4CCC4)(C2)C3)N[C@H]1C(=O)NCCC(F)(F)F` (mixture of isomers) [Example 105], the pIC50 was 7.16. Compound `CC(C)(C)CNC(=O)[C@@H]1NC(C23CC(N(Cc4ccc(Cl)c(Cl)c4)S(=O)(=O)CCC(F)F)(C2)C3)=NC1(C)C` (mixture of isomers) [Example 106] has a pIC50 of 7.15. `CC1(C)N=C(C23CC(N(Cc4ccc(Cl)cc4)S(=O)(=O)c4ccccc4Cl)(C2)C3)N[C@H]1C(=O)NCCC(F)(F)F` (mixture of isomers) [Example 107] was tested, and the pIC50 was 7.15. In the case of `CC1(C)N=C(C23CC(N(Cc4ccc(Cl)c(F)c4)S(=O)(=O)c4ccccc4)(C2)C3)N[C@H]1C(=O)NCCCC(F)(F)F` (mixture of isomers) [Example 108], the pIC50 was 7.15. For `CC1(C)N=C(C23CC(N(Cc4ccc(Cl)c(F)c4)S(=O)(=O)c4ccccc4)(C2)C3)N[C@H]1C(=O)N1CCC2(CCC2)C1` (mixture of isomers) [Example 109], the pIC50 was 7.15. Work on `CC1(C)N=C(C23CC(N(Cc4ccc(Cl)cc4)S(=O)(=O)c4cccnc4)(C2)C3)N[C@H]1C(=O)NCCC(F)(F)F` (mixture of isomers) [Example 110] yielded a pIC50 of 7.14. Compound `CC(F)(F)CCS(=O)(=O)N(Cc1ccc(Cl)c(F)c1)C12CC(C3=NC(C)(C)[C@H](C(=O)NCCC(F)(F)F)N3)(C1)C2` (mixture of isomers) [Example 111] has a pIC50 of 7.14. `CC1(C)N=C(C23CC(N(Cc4ccc(Cl)cc4)S(=O)(=O)c4ccccc4)(C2)C3)N[C@H]1C(=O)NCC(F)(F)C(F)(F)F` (mixture of isomers) [Example 112] showed a pIC50 of 7.14. `CN(CC1CC(F)(F)C1)C(=O)[C@@H]1NC(C23CC(N(Cc4ccc(Cl)c(Cl)c4)S(=O)(=O)c4ccccc4)(C2)C3)=NC1(C)C` (mixture of isomers) [Example 113] gave a pIC50 of 7.14. `CC1(C)N=C(C23CC(N(Cc4ccc(Cl)c(F)c4)S(=O)(=O)c4ccccc4)(C2)C3)N[C@H]1C(=O)NC1CC(F)(F)C1` (mixture of isomers) [Example 114] gave a pIC50 of 7.14. `CC1(C)N=C(C23CC(N(Cc4ccc(Cl)c(Cl)c4)S(=O)(=O)c4ccccc4)(C2)C3)N[C@H]1C(=O)NC1CC(F)(F)C1` (mixture of isomers) [Example 115] gave a pIC50 of 7.14. `CC1(C)N=C(C23CC(N(Cc4ccc(Cl)c(Cl)c4)S(=O)(=O)c4ccccc4)(C2)C3)N[C@H]1C(=O)N1CCC2(C1)CC(F)(F)C2` (mixture of isomers) [Example 116] was tested, and the pIC50 was 7.14. `CN(CCC(F)(F)F)C(=O)[C@@H]1NC(C23CC(N(Cc4ccc(Cl)c(Cl)c4)S(=O)(=O)CCC(C)(F)F)(C2)C3)=NC1(C)C` (mixture of isomers) [Example 117] gave a pIC50 of 7.14. Compound `CC1(C)N=C(C23CC(N(Cc4ccc(Cl)c(F)c4)S(=O)(=O)c4ccccc4)(C2)C3)N[C@H]1C(=O)NC1(CC(F)(F)F)CC1` (mixture of isomers) [Example 118] has a pIC50 of 7.13. For `CC1(C)N=C(C23CC(N(Cc4ccc(Cl)c(F)c4)S(=O)(=O)c4ccccc4)(C2)C3)N[C@H]1C(=O)N(CCC(F)(F)F)C1CC1` (mixture of isomers) [Example 119], the pIC50 was 7.13. `CN(C(=O)[C@@H]1NC(C23CC(N(Cc4ccc(Cl)c(Cl)c4)S(=O)(=O)c4ccccc4)(C2)C3)=NC1(C)C)C1CC(C(F)F)C1` (mixture of isomers) [Example 120] gave a pIC50 of 7.13. In the case of `CC1(C)N=C(C23CC(N(Cc4ccc(Cl)cc4)S(=O)(=O)C4CCCC4)(C2)C3)N[C@H]1C(=O)NCCC(F)(F)F` (mixture of isomers) [Example 121], the pIC50 was 7.12.
